The numbers were not newly measured in patent US20100261666A1, “COMPOSITIONS AND METHODS FOR THE TREATMENT OF MYOCARDIAL DYSFUNCTION ASSOCIATED WITH SIRS OR SEPSIS” (THE BOARD OF TRUSTEES OF THE UNIVERSITY OF ILLINOIS, priority 2009, published 2010), which cites them from elsewhere.

The target of this data set is ADA (Homo sapiens, UniProt P00813). The following applies: cited from earlier work.
Sequence of ADA (P00813 whole entry, species assumed): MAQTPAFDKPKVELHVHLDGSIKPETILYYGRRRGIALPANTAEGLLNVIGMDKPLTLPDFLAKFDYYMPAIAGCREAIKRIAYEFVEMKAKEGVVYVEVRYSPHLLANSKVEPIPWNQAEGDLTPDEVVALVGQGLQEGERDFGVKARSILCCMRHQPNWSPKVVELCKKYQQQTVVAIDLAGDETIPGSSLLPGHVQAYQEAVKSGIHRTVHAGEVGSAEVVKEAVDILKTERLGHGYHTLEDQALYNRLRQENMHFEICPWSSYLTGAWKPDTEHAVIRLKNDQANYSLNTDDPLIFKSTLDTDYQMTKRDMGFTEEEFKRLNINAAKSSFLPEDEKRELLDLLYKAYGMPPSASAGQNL

Turning to `OC[C@H]1O[C@@H](n2cnc3c2N=CNCC3O)C(O)[C@H]1O` (stereo partly shown) [coformycin], the Ki (as a rule, a measure of affinity in units of concentration, obtained from inhibition or displacement) is 0.01 nM.
